This is an account of results in patent US4607039A, “Quinoline derivatives which are 5-hydroxytryptamine antagonists” (Imperial Chemical Industries PLC, priority 1982, dated 1986).

The conditions of data set [1]: stated in U.S. Pat. No. 1,860,286; cited from earlier work.
The nature of data set [2]: Tolerance in the marmoset, oral. As to conditions: in vivo, read-out: oral doses tolerated (up to). As to the method: (§1) No toxic effects or other undesirable effects have been observed with the compounds at doses at which they are active in the above-mentioned tests. Furthermore, as an indication of the lack of toxicity of a specific compound of the invention, namely 2-(2-dimethylamino-2-methylpropylthio)-4-methyl-3-phenylquinoline, that compound is tolerated in both the conscious dog and the marmoset at oral doses of up to 60 mg./kg.

Data set [3] in a line: Tolerance in the conscious dog, oral. Conditions: in vivo, read-out: oral doses tolerated (up to). Here is the method: as §1

Structures are written as SMILES. Bounds are passed on as bounds.

With `CCN(CC)CCOc1nc2ccccc2cc1-c1ccccc1` [2-(2-diethylaminoethoxy)-3-phenylquinoline], the antipyretic activity result in data set [1] is “exhibits antipyretic activity”.
On to `Cc1c(-c2ccccc2)c(SCC(C)(C)N(C)C)nc2ccccc12.O=C(O)/C=C/C(=O)O.O=C(O)/C=C/C(=O)O` [Example 3, 2-(2-dimethylamino-2-methylpropylthio)-4-methyl-3-phenylquinoline difumarate], for which the MTD in data set [2] and in data set [3] was at least 60 mg/kg in each case.
